Results published in PMC6117091, “The C. difficile clnRAB operon initiates adaptations to the host environment in response to LL-37” (PLoS Pathogens, 2018).
Values after ≈ are worked out from the molar mass of the structure shown.

Experiments:
[1] = system: C. difficile clnR mutant; test: Growth in minimal medium with LL-37, maximum doubling time; conditions: mean ± SD, n ≥ 3
[2] = system: C. difficile clnR mutant; test: qRT-PCR of selected RNA-seq transcripts in LL-37; conditions: 2 µg/ml LL-37; normalized to 630∆erm in BHIS; mean ± SEM, n ≥ 3
[3] = system: C. difficile 630Δerm; test: Minimum bactericidal concentration (MBC); format: cell-based, Clostridioides difficile; conditions: 1:10 dilution into BHIS, 24 h, 37°C, anaerobic
[4] = system: C. difficile clnAB Tn::clnRAB; test: qRT-PCR of selected RNA-seq transcripts in LL-37; conditions: 2 µg/ml LL-37; normalized to 630∆erm in BHIS; mean ± SEM, n ≥ 3
[5] = system: C. difficile clnAB mutant (MC935); test: Minimum bactericidal concentration (MBC); format: cell-based, Clostridioides difficile; conditions: 1:10 dilution into BHIS, 24 h, 37°C, anaerobic
[6] = system: C. difficile 630Δerm; test: qRT-PCR of selected RNA-seq transcripts in LL-37; conditions: 2 µg/ml LL-37; normalized to 630∆erm in BHIS; mean ± SEM, n ≥ 3

## CC[C@H](C)[C@H](NC(=O)[C@H](CCCCN)NC(=O)[C@H](CCC(=O)O)NC(=O)[C@H](CCCCN)NC(=O)[C@H](CO)NC(=O)[C@H](CCCCN)NC(=O)[C@H](CCCNC(=N)N)NC(=O)[C@H](Cc1ccccc1)NC(=O)[C@H](Cc1ccccc1)NC(=O)[C@H](CC(=O)O)NC(=O)CNC(=O)[C@H](CC(C)C)NC(=O)[C@@H](N)CC(C)C)C(=O)NCC(=O)N[C@@H](CCCCN)C(=O)N[C@@H](CCC(=O)O)C(=O)N[C@@H](Cc1ccccc1)C(=O)N[C@@H](CCCCN)C(=O)N[C@@H](CCCNC(=N)N)C(=O)N[C@H](C(=O)N[C@H](C(=O)N[C@@H](CCC(N)=O)C(=O)N[C@@H](CCCNC(=N)N)C(=O)N[C@H](C(=O)N[C@@H](CCCCN)C(=O)N[C@@H](CC(=O)O)C(=O)N[C@@H](Cc1ccccc1)C(=O)N[C@@H](CC(C)C)C(=O)N[C@@H](CCCNC(=N)N)C(=O)N[C@@H](CC(N)=O)C(=O)N[C@@H](CC(C)C)C(=O)N[C@H](C(=O)N1CCC[C@H]1C(=O)N[C@@H](CCCNC(=N)N)C(=O)N[C@H](C(=O)N[C@@H](CCC(=O)O)C(=O)N[C@@H](CO)C(=O)O)[C@@H](C)O)C(C)C)[C@@H](C)CC)C(C)C)[C@@H](C)CC [LL-37]
[1]; 0.5 µg/ml LL-37, MM + 30 mM NAG
  Doubling time: 86.6 ± 2.5 min
[1]; 0.5 µg/ml LL-37, MM + 30 mM ethanolamine
  Doubling time: 84.9 ± 4.6 min
[1]; 0.5 µg/ml LL-37, MM + 30 mM fructose
  Doubling time: 72.4 ± 0.9 min
[1]; 0.5 µg/ml LL-37, MM + 30 mM glucose
  Doubling time: 74.0 ± 1.7 min
[1]; 0.5 µg/ml LL-37, MM + 30 mM mannitol
  Doubling time: 67.3 ± 1.5 min
[1]; 0.5 µg/ml LL-37, MM + 30 mM mannose
  Doubling time: 78.4 ± 4.9 min
[1]; 0.5 µg/ml LL-37, base MM
  Doubling time: 74.1 ± 4.8 min
[2]
  CD630_02840 relative expression: 2.2 ± 0.5
  cstA (CD630_26000) relative expression: 2.3 ± 0.5
  grdA (CD630_23520) relative expression: 1.4 ± 0.1
  mtlA (CD630_23340) relative expression: 1.2 ± 0.7
  sigT (csfT; CD630_06770) relative expression: 2.3 ± 1.1
  sigU (csfU; CD630_18870) relative expression: 2.0 ± 0.6
  vanZ1 (CD630_12400) relative expression: 13.4 ± 5.8
[3]
  MBC: 20 µg/mL (≈ 4.45 µM)
[4]
  cstA (CD630_26000) relative expression: 1.3 ± 0.2
  grdA (CD630_23520) relative expression: 1.6 ± 0.2
  mtlA (CD630_23340) relative expression: 0.7 ± 0.4
  sigT (csfT; CD630_06770) relative expression: 1.2 ± 0.2
  sigU (csfU; CD630_18870) relative expression: 0.8 ± 0.1
  vanZ1 (CD630_12400) relative expression: 0.6 ± 0.1
[5]
  MBC: 20 µg/mL (≈ 4.45 µM)
[6]
  CD630_02840 relative expression: 29.3 ± 18.8
  grdA (CD630_23520) relative expression: 16.5 ± 10.5
  iorA (CD630_23810) relative expression: 16.8 ± 8.4
  mtlA (CD630_23340) relative expression: 1.0 ± 0.3
  sigU (csfU; CD630_18870) relative expression: 10.5 ± 6.8
